Results as given in patent US12172919B2, “Deconstruction of oilsand materials using ionic liquids” (ADJACENCY LABS CORP., priority 2017, dated 2024).
Like-named read-outs stand apart in the source and are kept apart here.

Key:
[1] = In-situ extraction: IL injection through column packed with oil sand; settings: 100 g oil sand, 0.5 mL/min for 26 h, 24 h soak, 2 h re-injection
Procedure: 100 g dry oil sand was packed into a steel tube (1.5×30 cm). The packed steel tube then was mounted into apparatus to allow injection of desired fluid through the oil sand while collecting the effluent for subsequent analysis (FIG. 61). The injection of [C8NH3][Oleate] was continuous for 26 h at an injection rate of 0.5 mL/min, and the injection pressure was stabilized in the range 1940-2000 kPa. The breakthrough time was around 35 min. This indicates the pore volume was around 17.5 ml. The total amount of [C8NH3][Oleate] injected was around 783 ml. […] At the first 2.5 h of injection, the bitumen recovery is significant, and the fluid recovered is black. However, with continuing injection the black intensity decreases gradually till the effluent is clear [C8NH3][Oleate] after 26 h.
After 26 h of injection, the pump was stopped and the [C8NH3][Oleate]/Oil sand system in the steel column was left to soak for 24 h. Then injection was re-started with the same injection rate (0.5 mL/min) and the pressure stabilized at around 1850 kPa (similar level before soaking). The blackness of the fluid samples recovered during 2 h of injection post-soaking is not as intense as that during the same time for [C8NH3][Oleate] injection into the fresh oil sand. […]
After terminating the experiment, the bitumen still in the oil sand was quantified using Dean Stark.

[2] = Thermogravimetric analysis (TGA); type: physicochemical

octylammonium oleate [[C8NH3][Oleate]]
bitumen remaining in oil sand by Dean Stark extraction, of the initial amount of bitumen [1]: 47.34% | thermal decomposition temperature [2]: 129 °C | [C8NH3][Oleate] solubility (solvent: Acetonitrile): − (Insoluble (0.2 g in 3 mL solvent)) | [C8NH3][Oleate] solubility (solvent: Chloroform): + (Soluble (0.2 g in 0.5 mL solvent)) | [C8NH3][Oleate] solubility (solvent: DI water): − (Insoluble (0.2 g in 3 mL solvent)) | [C8NH3][Oleate] solubility (solvent: Dichlorobenzene): + (Soluble (0.2 g in 0.5 mL solvent)) | [C8NH3][Oleate] solubility (solvent: Dichloromethane): + (Soluble (0.2 g in 0.5 mL solvent)) | [C8NH3][Oleate] solubility (solvent: Dimethyl sulfoxide): − (Insoluble (0.2 g in 3 mL solvent)) | [C8NH3][Oleate] solubility (solvent: Hexane): + (Soluble (0.2 g in 0.5 mL solvent)) | [C8NH3][Oleate] solubility (solvent: Methanol): + (Soluble (0.2 g in 0.5 mL solvent)) | [C8NH3][Oleate] solubility (solvent: Xylene): + (Soluble (0.2 g in 0.5 mL solvent))
